In patent US8067042B1 (Mutual Pharmaceutical Company, Inc., priority 2007, dated 2011):
Values joined by “and” are separate entries in the source; they are usually repeats but may differ in a detail not shown here. Equal values may be shown once. Read-outs that look alike come from different tables or passages of the source.

Legend:
CYP2A6 = target: T1, CYP2A6 (Homo sapiens, UniProt P11509); type: in vitro ADME; set-up: purchased BD Biosciences Discovery Labware, Woburn, Mass; host or cells: baculovirus-infected insect cells; conditions: 50 μM megestrol acetate, 20 pmol CYP2A6
T1 sequence (P11509 1-494): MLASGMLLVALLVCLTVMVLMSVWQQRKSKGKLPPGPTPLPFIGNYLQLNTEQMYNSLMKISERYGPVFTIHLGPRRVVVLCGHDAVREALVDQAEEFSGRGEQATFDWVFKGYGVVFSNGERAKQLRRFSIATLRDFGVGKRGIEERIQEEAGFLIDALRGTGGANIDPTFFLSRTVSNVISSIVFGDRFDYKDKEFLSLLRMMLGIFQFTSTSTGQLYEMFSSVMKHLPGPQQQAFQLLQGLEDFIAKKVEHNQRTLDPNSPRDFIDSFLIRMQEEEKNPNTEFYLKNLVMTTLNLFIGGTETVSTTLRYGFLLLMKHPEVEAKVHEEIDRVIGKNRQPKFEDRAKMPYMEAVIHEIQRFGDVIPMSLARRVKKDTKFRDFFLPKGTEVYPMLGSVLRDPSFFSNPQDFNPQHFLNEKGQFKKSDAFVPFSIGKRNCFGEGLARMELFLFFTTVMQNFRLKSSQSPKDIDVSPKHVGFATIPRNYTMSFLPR

CYP2C9 [1] = target: T2, CYP2C9 (Homo sapiens, UniProt P11712)
T2 sequence (P11712 whole entry): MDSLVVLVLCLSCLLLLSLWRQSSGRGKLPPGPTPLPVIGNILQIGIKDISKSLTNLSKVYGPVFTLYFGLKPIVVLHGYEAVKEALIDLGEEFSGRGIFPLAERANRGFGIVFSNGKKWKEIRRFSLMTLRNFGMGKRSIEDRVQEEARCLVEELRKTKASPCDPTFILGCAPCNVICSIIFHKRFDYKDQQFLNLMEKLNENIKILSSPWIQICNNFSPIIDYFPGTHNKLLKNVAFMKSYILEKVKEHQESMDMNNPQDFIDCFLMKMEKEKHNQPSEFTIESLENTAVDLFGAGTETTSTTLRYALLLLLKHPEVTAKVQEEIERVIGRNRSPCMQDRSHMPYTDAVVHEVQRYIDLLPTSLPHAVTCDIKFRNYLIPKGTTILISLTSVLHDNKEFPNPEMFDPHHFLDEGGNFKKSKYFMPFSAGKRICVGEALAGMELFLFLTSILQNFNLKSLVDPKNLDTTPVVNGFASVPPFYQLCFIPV
Procedure: The stock solutions were added to incubation mixtures to obtain the final concentrations of 5 and 50 μM, each containing 1% acetonitrile.
Microsomes were prepared by differential centrifugation of liver homogenates pooled from at least ten human donors.
After a 5 minute preincubation, nicotinamide adenine dinucleotide phosphate (NADPH) regenerating system (NRS; 1.7 mg/mL β-NADP, 7.8 mg/mL glucose-6-phosphate, and 6 units/mL glucose-6-phosphate dehydrogenase in 2% sodium bicarbonate solution) was added to initiate the reaction. The final incubation volume was 0.5 mL. Incubations were continued for 60 minutes.
All incubations were conducted at 37±1° C. in a shaking water bath. All incubations were carried out in triplicates.
After a 5-minute preincubation, 2% sodium bicarbonate solution was added to the incubation mixtures. The final incubation volume was 0.5 mL. Incubations were continued for 60 minutes.
Incubation reactions, including the matrix controls and metabolic negative controls, were terminated by adding 0.5 mL methanol.
The samples were analyzed on a Supelcosil LC-18 column (3μ, 120 Å, 3.0×100 mm).

CYP2E1 = type: in vitro ADME; conditions: 50 μM megestrol acetate, microsomes, diethyldithiocarbamate
CYP3A4 = CYP3A4 (Homo sapiens, UniProt P08684); type: in vitro ADME; conditions: 50 μM megestrol acetate, microsomes, ketoconazole
CYP3A4, sequence (P08684 whole entry): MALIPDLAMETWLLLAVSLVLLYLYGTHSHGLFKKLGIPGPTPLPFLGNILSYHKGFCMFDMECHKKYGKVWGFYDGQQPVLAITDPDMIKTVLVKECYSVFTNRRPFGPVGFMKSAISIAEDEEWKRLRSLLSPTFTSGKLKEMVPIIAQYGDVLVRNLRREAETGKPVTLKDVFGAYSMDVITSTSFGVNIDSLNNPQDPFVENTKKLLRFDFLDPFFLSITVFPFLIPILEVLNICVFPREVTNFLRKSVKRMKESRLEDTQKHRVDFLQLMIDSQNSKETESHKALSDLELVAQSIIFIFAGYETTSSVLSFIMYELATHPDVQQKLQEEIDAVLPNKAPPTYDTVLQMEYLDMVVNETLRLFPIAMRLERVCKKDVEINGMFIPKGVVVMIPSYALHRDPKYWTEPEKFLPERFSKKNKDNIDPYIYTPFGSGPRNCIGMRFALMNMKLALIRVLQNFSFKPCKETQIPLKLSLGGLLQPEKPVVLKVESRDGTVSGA

CYP2C9 [2] = target: T2, CYP2C9; type: in vitro ADME; conditions: 50 μM megestrol acetate, microsomes
CYP2C9 [3] = target: T2, CYP2C9; type: in vitro ADME; set-up: purchased BD Biosciences Discovery Labware, Woburn, Mass; host or cells: baculovirus-infected insect cells; conditions: 50 μM megestrol acetate, 20 pmol CYP2C9
[4] = target: T3, Human CYP2B6 + P450 Reductase + Cytochrome b5 SUPERSOMES (Homo sapiens, UniProt P20813)
T3 sequence (P20813 1-491): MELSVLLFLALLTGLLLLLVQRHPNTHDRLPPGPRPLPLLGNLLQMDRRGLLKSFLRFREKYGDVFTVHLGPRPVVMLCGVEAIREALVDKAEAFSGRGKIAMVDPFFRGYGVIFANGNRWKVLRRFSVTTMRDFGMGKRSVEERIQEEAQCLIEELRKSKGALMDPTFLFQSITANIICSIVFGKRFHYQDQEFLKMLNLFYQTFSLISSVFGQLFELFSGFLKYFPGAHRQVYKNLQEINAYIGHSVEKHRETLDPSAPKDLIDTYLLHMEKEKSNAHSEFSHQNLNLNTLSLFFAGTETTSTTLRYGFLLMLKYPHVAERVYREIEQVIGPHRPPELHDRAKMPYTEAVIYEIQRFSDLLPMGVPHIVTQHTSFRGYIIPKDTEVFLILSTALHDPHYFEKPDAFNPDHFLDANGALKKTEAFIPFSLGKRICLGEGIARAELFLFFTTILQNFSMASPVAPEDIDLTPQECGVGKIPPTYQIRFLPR
Procedure: (§1) In this study, individual CYP isoforms expressed from human cDNA and P450 reductase cDNA were used (BD SUPERSOMES™ Enzymes, BD Biosciences Discovery Labware, Woburn, Mass.). SUPERSOMES™ are microsomes from baculovirus-infected insect cells containing singly expressed recombinant human CYP enzymes.
(§2) After a 5-minute preincubation, an appropriate amount of the appropriate buffer was added to the reaction mixtures to make the final volume of 0.5 mL. The incubations were continued for 60 minutes.
(§3) All incubation reactions were terminated by adding 0.5 mL methanol, and the samples were transferred to cryovials and stored at −70±10° C. until analysis.

[5] = target: Human CYP2C19 + P450 Reductase + Cytochrome b5 SUPERSOMES (Homo sapiens, UniProt P33261)
Human CYP2C19 + P450 Reductase + Cytochrome b5 SUPERSOMES, sequence (P33261 whole entry): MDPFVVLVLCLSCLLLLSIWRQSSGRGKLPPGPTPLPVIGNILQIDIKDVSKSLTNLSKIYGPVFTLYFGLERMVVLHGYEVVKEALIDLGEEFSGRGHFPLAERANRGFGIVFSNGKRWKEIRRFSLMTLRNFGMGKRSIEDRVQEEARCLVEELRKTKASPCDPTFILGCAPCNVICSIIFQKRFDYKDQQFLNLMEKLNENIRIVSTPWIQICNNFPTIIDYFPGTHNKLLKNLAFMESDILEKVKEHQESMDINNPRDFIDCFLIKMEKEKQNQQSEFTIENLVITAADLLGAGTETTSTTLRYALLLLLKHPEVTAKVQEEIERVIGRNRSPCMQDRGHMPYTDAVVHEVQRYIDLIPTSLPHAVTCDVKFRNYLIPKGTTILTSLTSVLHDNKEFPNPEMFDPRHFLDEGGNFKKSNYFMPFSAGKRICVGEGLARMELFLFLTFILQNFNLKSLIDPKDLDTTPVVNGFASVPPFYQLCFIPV
Procedure: as §1, §2, §3

[6] = target: Human CYP2C9*1 (Arg144) + P450 Reductase + Cytochrome b5 SUPERSOMES (Homo sapiens, UniProt P11712)
Procedure: as §1, §2, §3

[7] = 5 μM, 5 pmol enzyme, listed as megestrol acetate
[8] = 5 μM, 20 pmol enzyme, listed as megestrol acetate
[9] = 50 μM, 5 pmol enzyme, listed as megestrol acetate
[10] = 50 μM, 20 pmol enzyme, listed as megestrol acetate

Compound: CC(=O)O[C@]1(C(C)=O)CC[C@H]2[C@@H]3C=C(C)C4=CC(=O)CC[C@]4(C)[C@H]3CC[C@@]21C [Megestrol Acetate, 17 α-acetyloxy-6-methylpregna-4,6-diene-3,20-dione]
- metabolites formed (CYP2A6): no metabolites were formed
- percent metabolized in presence vs absence of inhibitor (unpaired two-tailed t-test) (CYP2C9 [1]): not different from the percentage of megestrol acetate metabolized in the absence of the inhibitor
- metabolized in pooled human liver microsomes (CYP2C9 [1]; human, microsomes, 60 min, pH 7.4): > 20%
- difference in metabolism in the presence or absence of the inhibitor (LC/MS) (CYP2E1): a significant difference in metabolism
- difference in metabolism in the presence or absence of the inhibitor (LC/MS) (CYP3A4): a significant difference in metabolism
- difference in metabolism in the presence or absence of the inhibitor (LC/MS) (CYP2C9 [2]): no significant difference in metabolism
- metabolites formed (CYP2C9 [3]): no metabolites observed
- Individual Raw Data Observed ([4]; 5 μM, 5 pmol enzyme): 2.221 µM and 2.3 µM and 2.31 µM
- Percent of Parent Disappearance Individual ([4]; 5 μM, 5 pmol enzyme): −0.459% and −4.00% and −4.49%
- Percent of Parent Disappearance Mean ± SD ([4]; 5 μM, 5 pmol enzyme): −2.98 ± 2.20%
- Percent of Parent Disappearance Mean ± SD [4, 7]: 2.98±2.20%
- Individual Raw Data Observed ([4]; 5 μM, 20 pmol enzyme): 2.474 µM and 2.381 µM and 2.385 µM
- Percent of Parent Disappearance Individual ([4]; 5 μM, 20 pmol enzyme): −0.257% and 3.52% and 3.37%
- Percent of Parent Disappearance Mean ± SD ([4]; 5 μM, 20 pmol enzyme): 2.21 ± 2.14%
- Percent of Parent Disappearance Mean ± SD [4, 8]: 2.21±2.14%
- Individual Raw Data Observed ([4]; 50 μM, 5 pmol enzyme): 20.88 µM and 21.85 µM and 25.99 µM
- Percent of Parent Disappearance Individual ([4]; 50 μM, 5 pmol enzyme): 3.63% and −0.862% and −20.0%
- Percent of Parent Disappearance Mean ± SD ([4]; 50 μM, 5 pmol enzyme): −5.73 ± 12.5%
- Percent of Parent Disappearance Mean ± SD [4, 9]: 5.73±12.5%
- Individual Raw Data Observed ([4]; 50 μM, 20 pmol enzyme): 21.46 µM and 22.47 µM and 22.35 µM
- Percent of Parent Disappearance Mean ± SD ([4]; 50 μM, 20 pmol enzyme): 2.53 ± 2.43%
- Percent of Parent Disappearance Mean ± SD [4, 10]: 2.53±2.43%
- Individual Raw Data Observed ([5]; 5 μM, 5 pmol enzyme): 2.139 µM and 2.028 µM and 1.969 µM
- Percent of Parent Disappearance Individual ([5]; 5 μM, 5 pmol enzyme): −8.12% and −2.56% and 0.430%
- Percent of Parent Disappearance Mean ± SD ([5]; 5 μM, 5 pmol enzyme): −3.42 ± 4.34%
- Percent of Parent Disappearance Mean ± SD [5, 7]: 3.42±4.34%
- Individual Raw Data Observed ([5]; 5 μM, 20 pmol enzyme): 2.14 µM and 2.225 µM and 2.128 µM
- Percent of Parent Disappearance Individual ([5]; 5 μM, 20 pmol enzyme): 2.70% and −1.16% and 3.25%
- Percent of Parent Disappearance Mean ± SD ([5]; 5 μM, 20 pmol enzyme): 1.60 ± 2.40%
- Percent of Parent Disappearance Mean ± SD [5, 8]: 1.60±2.40%
- Individual Raw Data Observed ([5]; 50 μM, 5 pmol enzyme): 21.34 µM and 20.03 µM and 19.86 µM
- Percent of Parent Disappearance Individual ([5]; 50 μM, 5 pmol enzyme): −9.66% and −2.96% and −2.05%
- Percent of Parent Disappearance Mean ± SD ([5]; 50 μM, 5 pmol enzyme): −4.89 ± 4.16%
- Percent of Parent Disappearance Mean ± SD [5, 9]: 4.89±4.16%
- Individual Raw Data Observed ([5]; 50 μM, 20 pmol enzyme): 15.71 µM and 16.25 µM and 16.51 µM
- Percent of Parent Disappearance Individual ([5]; 50 μM, 20 pmol enzyme): −0.956% and −4.44% and −6.11%
- Percent of Parent Disappearance Mean ± SD ([5]; 50 μM, 20 pmol enzyme): −3.84 ± 2.63%
- Percent of Parent Disappearance Mean ± SD [5, 10]: 3.84±2.63%
- Individual Raw Data Observed ([6]; 5 μM, 5 pmol enzyme): 2.098 µM and 2.127 µM and 2.133 µM
- Percent of Parent Disappearance Individual ([6]; 5 μM, 5 pmol enzyme): 3.68% and 2.33% and 2.08%
- Percent of Parent Disappearance Mean ± SD ([6]; 5 μM, 5 pmol enzyme): 2.70 ± 0.860%
- Percent of Parent Disappearance Mean ± SD [6, 7]: 2.70±0.860%
- Individual Raw Data Observed ([6]; 5 μM, 20 pmol enzyme): 2.314 µM and 2.379 µM and 2.134 µM
- Percent of Parent Disappearance Individual ([6]; 5 μM, 20 pmol enzyme): 9.53% and 6.99% and 16.6%
- Percent of Parent Disappearance Mean ± SD ([6]; 5 μM, 20 pmol enzyme): 11.0 ± 4.96%
- Percent of Parent Disappearance Mean ± SD [6, 8]: 11.0±4.96%
- Individual Raw Data Observed ([6]; 50 μM, 5 pmol enzyme): 20.38 µM and 20.18 µM and 20.9 µM
- Percent of Parent Disappearance Individual ([6]; 50 μM, 5 pmol enzyme): 21.5% and 22.2% and 19.5%
- Percent of Parent Disappearance Mean ± SD ([6]; 50 μM, 5 pmol enzyme): 21.0 ± 1.43%
- Percent of Parent Disappearance Mean ± SD [6, 9]: 21.0±1.43%
- Individual Raw Data Observed ([6]; 50 μM, 20 pmol enzyme): 24.33 µM and 21.36 µM and 25.28 µM
- Percent of Parent Disappearance Individual ([6]; 50 μM, 20 pmol enzyme): −1.60% and 10.8% and −5.60%
- Percent of Parent Disappearance Mean ± SD ([6]; 50 μM, 20 pmol enzyme): 1.19 ± 8.54%
- Percent of Parent Disappearance Mean ± SD [6, 10]: 1.19±8.54%
